≈ marks a conversion by molar mass, not a printed value. Residues, ends and D or L forms follow the SMILES beside them.
Experiments:
LPS = experiment: Lung injury score (H&E histology), LPS-challenged mice; assay type: in vivo, mouse; details: 7 μmol/kg pre-treatment, 24 h (implied by contrast with 12 h)
Description: (§1) Fig. 8 Effects of cleavable chimeric peptide R7 on lung injury in mice. […] Lung injury was analyzed histologically at 12 h or 24 h, respectively. a Histopathological images of lung sections after staining with hematoxylin and eosin (H&E). Images are presented at a magnification of 100×. b Pathological analysis of lung. Lung injury involves in inflammation (such as peribronchial, perivascular, intrabronchial, and pulmonary interstitial one), bronchial exudate, and alveolar septal thickening, respectively. The specific degree of lung injury of each mouse is assessed by Score 0 (asymptomatic), Score 1 (mild), Score 2 (moderate), and Score 3 (severe), respectively. c The number of counted infiltrated inflammatory cells within processed lung sections from (a). Data represent the mean ± SD of three independent experiments. Different lower-case letters indicate a significant difference between the two groups (p < 0.05).
(§2) Lung tissues were taken at 12 h and 24 h, respectively, washed with PBS, and fixed in 4% paraformaldehyde overnight. After dehydration in different concentrations of ethanol (including 75%, 85%, 90%, and 95%, respectively), the tissues were embedded in paraffin, sliced, and stained with hematoxylin. Observation was performed under a light microscope. The mice only injected with E. coli, LPS or PBS was regard as the negative or blank control.

MDR E. coli CVCC195 [1] = experiment: Infiltrated inflammatory cells in lung sections, E. coli-challenged mice; assay type: in vivo, mouse; details: Fig. 6c source data, peptide + E. coli, mean
Description: as §1, with “6” for “8”, “h.” for “h, respectively.”, “a.” for “(a).”
as §2

E. coli 0111: B4 LPS = experiment: BC (BODIPY-TR-cadaverine) displacement assay, binding to LPS; parameters: species or system Escherichia coli; unit not given here; details: Fig. 4a source data, mean
Description: The binding of peptides to LPS was determined according to the method described previously[34],[59]. In brief, E. coli 0111: B4 LPS (40 μg/mL) and BODIPY-TR-cadaverine (BC) (10 μM) were mixed in 50 mM Tris buffer (pH = 7.4) in equal proportions and added to a 96-well black plate (180 μL/well) in the dark. Different concentrations of chimeric peptide R7 and its parental (20 μL) were added into each well and detected by a fluorescence spectrophotometry at room temperature (excitation wavelength 580 nm, emission wavelength 620 nm). The change in relative fluorescence was recorded and the BC displacement rate was calculated. Polymycin B (PMB) was used as the positive control.

MDR E. coli CVCC195 [2] = experiment: Lung injury score (H&E histology), E. coli-challenged mice; assay type: in vivo, mouse; details: for lung injury score: 7 μmol/kg i.p. pre-treatment, three mice/group; for Pathological analysis of lung (lung injury score): Fig. 6b source data, peptide + E. coli, mean
Description: Lung injury was analyzed histologically at 12 h or 24 h. a Histopathological images of lung sections after staining with hematoxylin and eosin (H&E). Images are presented at a magnification of 100×. b Pathological analysis of lung. Lung injury involves in inflammation (such as peribronchial, perivascular, intrabronchial, and pulmonary interstitial one), bronchial exudate, and alveolar septal thickening, respectively. The specific degree of lung injury of each mouse is assessed by Score 0 (asymptomatic), Score 1 (mild), Score 2 (moderate), and Score 3 (severe), respectively. c The number of counted infiltrated inflammatory cells within processed lung sections from a. Data represent the mean ± SD of three independent experiments. Different lower-case letters indicate a significant difference between the two groups (p < 0.05).
as §2

mouse red blood cells = experiment: Hemolytic activity; assay type: cell-based
Description: Blood was collected from the eyeballs of specific pathogen-free (SPF) ICR female mice (6-week-old) with an anticoagulant tube and centrifuged for 10 min (4 °C, 1500 rpm). After washing twice with 0.9% physiological saline, red blood cells were diluted to 8% suspension and added into the Eppendorf tube (100 μL); 2-fold peptide solutions dissolved in 0.9% physiological saline (100 μL) were then added into the tube, incubated at 37 °C for 1 h, and centrifugated at 4 °C for 5 min. The supernatant was pipetted into a 96-well plate and the UV absorbance was measured at 540 nm using a microplate reader. 0.1% Triton X-100 and physiological saline were used as positive and negative control, respectively. The hemolysis rate is calculated as follows: Hemolysis (%) = [(Abspeptide-Abssaline) / (Abs0.1% Triton X-100- Abssaline)] × 100[13].

[3] = test system: Staphylococcus aureus ATCC43300; assay type: cell-based; details: repeated three times; for MBC: lowest concentration giving 99.9% reduction of the inoculum; for MIC: microtiter broth dilution, 10^5 CFU/mL, 37 °C, 16 ~ 18 h
Description: (§3) The minimum inhibitory concentration (MIC) and minimum bactericidal concentration (MBC) of peptides were determined by the microtiter broth dilution method according to Clinical and Laboratory Standards Institute (CLSI) guidelines. […] PBS was used as the negative control. […] The MBC value was calculated as the lowest concentration of peptides resulting in a 99.9% reduction of the original inoculum. All experiments were repeated three times.

Escherichia coli CVCC195 = assay type: cell-based; details: repeated three times; for MBC: lowest concentration giving 99.9% reduction of the inoculum; for MIC: microtiter broth dilution, 10^5 CFU/mL, 37 °C, 16 ~ 18 h
Description: as §3

[4] = concentration 1 μg/ml (as headed), 37 °C, 1 h, absorbance 540 nm, 0.1% Triton X-100 = 100, mean, n = 3
[5] = concentration 2 μg/ml (as headed), 37 °C, 1 h, absorbance 540 nm, mean, n = 3
[6] = concentration 4 μg/ml (as headed), 37 °C, 1 h, absorbance 540 nm, mean, n = 3
[7] = concentration 8 μg/ml (as headed), 37 °C, 1 h, absorbance 540 nm, mean, n = 3
[8] = concentration 16 μg/ml (as headed), 37 °C, 1 h, absorbance 540 nm, mean, n = 3
[9] = concentration 32 μg/ml (as headed), 37 °C, 1 h, absorbance 540 nm, mean, n = 3
[10] = concentration 64 μg/ml (as headed), 37 °C, 1 h, absorbance 540 nm, mean, n = 3
[11] = concentration 128 μg/ml (as headed), 37 °C, 1 h, absorbance 540 nm, mean, n = 3

Row | SMILES | lung injury score (LPS) [points] | number of counted infiltrated inflammatory cells (MDR E. coli CVCC195 [1]; 12 h) | number of counted infiltrated inflammatory cells (MDR E. coli CVCC195 [1]; 24 h) | binding affinity to LPS (E. coli 0111: B4 LPS; peptide concentration 0.05 μM) | binding affinity to LPS (E. coli 0111: B4 LPS; peptide concentration 0.1 μM) | binding affinity to LPS (E. coli 0111: B4 LPS; peptide concentration 0.5 μM) | binding affinity to LPS (E. coli 0111: B4 LPS; peptide concentration 1 μM) | binding affinity to LPS (E. coli 0111: B4 LPS; peptide concentration 5 μM) | binding affinity to LPS (E. coli 0111: B4 LPS; peptide concentration 10 μM) | binding affinity to LPS (E. coli 0111: B4 LPS; peptide concentration 50 μM) | binding affinity to LPS (E. coli 0111: B4 LPS; peptide concentration 100 μM) | lung injury score (MDR E. coli CVCC195 [2]; 12 h after E. coli infection) [points] | lung injury score (MDR E. coli CVCC195 [2]; 24 h after E. coli infection) [points] | Pathological analysis of lung (lung injury score) (MDR E. coli CVCC195 [2]; 12 h) | Pathological analysis of lung (lung injury score) (MDR E. coli CVCC195 [2]; 24 h) | Hemolysis (mouse red blood cells; [4]) [%] | Hemolysis (mouse red blood cells; [5]) [%] | Hemolysis (mouse red blood cells; [6]) [%] | Hemolysis (mouse red blood cells; [7]) [%] | Hemolysis (mouse red blood cells; [8]) [%] | further results
1 | CSCC[C@H](NC(=O)[C@H](CCCNC(=N)N)NC(=O)[C@H](Cc1c[nH]c2ccccc12)NC(=O)[C@H](C)NC(=O)[C@H](Cc1c[nH]c2ccccc12)NC(=O)[C@H](CCCNC(=N)N)NC(=O)[C@H](Cc1c[nH]c2ccccc12)NC(=O)[C@H](C)NC(=O)[C@H](CCCCN)NC(=O)[C@H](Cc1ccccc1)NC(=O)[C@H](CCCNC(=N)N)NC(=O)[C@H](CCCNC(=N)N)NC(=O)[C@H](CCCCN)NC(=O)[C@H](CCCNC(=N)N)NC(=O)[C@H](CCCCN)NC(=O)[C@H](Cc1ccccc1)NC(=O)[C@H](Cc1ccccc1)NC(=O)[C@H](CO)NC(=O)[C@H](C)NC(=O)[C@H](CCCNC(=N)N)NC(=O)[C@@H](NC(=O)[C@H](CCCCN)NC(=O)[C@H](Cc1c[nH]c2ccccc12)NC(=O)[C@H](CCCNC(=N)N)NC(=O)CNC(=O)[C@H](CCC(N)=O)NC(=O)[C@@H](NC(=O)[C@@H](N)CCCNC(=N)N)C(C)C)C(C)C)C(=O)N[C@@H](CCCCN)C(=O)N[C@@H](CCCCN)C(=O)N[C@@H](CC(C)C)C(=O)N[C@@H](C)C(=O)N[C@@H](C)C(=O)N1CCC[C@H]1C(=O)N[C@@H](CO)C(=O)O [R7] (H-RVQGRWKVRASFFKRKRRFKAWRWAWRMKKLAAPS-OH) | 3.0 | 14.3787 | 11.7743 | 20.2273 | 21.6184 | 51.5852 | 77.8834 | 85.6571 | 94.6127 | 98.4665 | 96.0469 | 4.3 | 2.0 | 2.333 | 2 | -0.4331 | -0.2475 | -0.2475 | -0.1031 | 0.495 | Hemolysis (mouse red blood cells; [9]): 2.846%; Hemolysis (mouse red blood cells; [10]): 6.991%; Hemolysis (mouse red blood cells; [11]): 10.9301%; Hemolysis (mouse red blood cells; low concentration (0 ~ 32 μM)): no hemolysis; MBC [3]: 2.26 µM (≈ 10.1 µg/mL); MIC [3]: 2.26 µM (≈ 10.1 µg/mL); MBC (Escherichia coli CVCC195): 1.13 µM (≈ 5.06 µg/mL); MIC (Escherichia coli CVCC195): 1.13 µM (≈ 5.06 µg/mL)
2 | CSCC[C@H](NC(=O)[C@H](CCCNC(=N)N)NC(=O)[C@H](Cc1c[nH]c2ccccc12)NC(=O)[C@H](C)NC(=O)[C@H](Cc1c[nH]c2ccccc12)NC(=O)[C@H](CCCNC(=N)N)NC(=O)[C@H](Cc1c[nH]c2ccccc12)NC(=O)[C@H](C)NC(=O)[C@H](CCCCN)NC(=O)[C@@H](N)Cc1ccccc1)C(=O)N[C@@H](CCCCN)C(=O)N[C@@H](CCCCN)C(=O)N[C@@H](CC(C)C)C(=O)N[C@@H](C)C(=O)N[C@@H](C)C(=O)N1CCC[C@H]1C(=O)N[C@@H](CO)C(=O)O [L7] (H-FKAWRWAWRMKKLAAPS-OH) | 6.3 | 32.847 | 26.4133 | 17.2577 | 18.4019 | 19.7825 | 22.1031 | 24.1888 | 28.4883 | 44.9086 | 71.3338 | 7.7 | 5.7 | 6.667 | 7 | -0.1237 | 0.165 | -0.1856 | -0.6393 | 0.04126 | hemolysis against mouse red blood cells (mouse red blood cells; 128 μM): 0%; Hemolysis (mouse red blood cells; [9]): -0.3506%; Hemolysis (mouse red blood cells; [10]): -0.6805%; Hemolysis (mouse red blood cells; [11]): -1.031%; Hemolysis (mouse red blood cells; low concentration (0 ~ 32 μM)): no hemolysis; MBC [3]: 18.1 µM (≈ 38.6 µg/mL); MIC [3]: 18.1 µM (≈ 38.6 µg/mL); MBC (Escherichia coli CVCC195): 4.53 µM (≈ 9.67 µg/mL); MIC (Escherichia coli CVCC195): 2.26 µM (≈ 4.82 µg/mL)

Source: paper PMC10654507, “A cleavable chimeric peptide with targeting and killing domains enhances LPS neutralization and antibacterial properties against multi-drug resistant E. coli” (Communications Biology, 2023)
